Source: patent US20060166994A1, “Method for treating renal failure” (priority 2003, published 2006)

Experiments:
[1] = 180-day mortality in heart failure patients with normal or impaired renal function (pooled levosimendan trials 3001021b and 3001030); assay type: in vivo, human; conditions: for 180-day mortality in levosimendan groups: heart failure patients, i.v. infusion 6 or 24 h
Method: In total, 701 heart failure patients from levosimendan trials 3001021b and 3001030 were included into the analysis to determine the effect of levosimendan on mortality in patients with normal or impaired renal function.
The study 3001021b compared levosimendan with dobutamine in a double-blind, parallel-group, randomised trial in 203 patients with low-output heart. Treatment with levosimendan (n=103) was started with a loading dose of 24 μg/kg infused over 10 minutes and followed by a continuous infusion of 0.1 μg/kg/min. For patients in whom the cardiac index had not increased by at least 30% compared with the baseline value at 2 hours, the dose was doubled to 0.2 μg/kg/min for levosimendan (n=69). Infusions were continued for totally 24 hours. Mortality was followed prospectively up to 31 days and retrospectively up to 180 days.
The study 3001030 evaluated the safety of levosimendan in patients with left ventricular failure after an acute myocardial infarction. The study was a placebo-controlled, double-blind, parallel-group, randomised, trial in 504 patients. Levosimendan was administered as a 10-minute loading dose followed by a continuous infusion for a total of 6 hours. The following doses were used: 6 μg/kg+0.1 μg/kg/min (n=103), 12 μg/kg+0.2 μg/kg/min (n=100), 24 μg/kg+0.2 μg/kg/min (n=99), 24 μg/kg+0.4 μg/kg/min (n=100) and similar placebo infusion (n=102). All-cause mortality was followed prospectively up to 14-days and retrospectively up to 180-days.
The patients combined from the above studies were classified according to their baseline renal function. The formula of Cockroft and Gault (Lafayette et al, 1997) was used to calculate the creatinine clearance (CLcr) values from the baseline serum creatinine) values as follows: [formula] [formula]

[2] = Elimination half-life of the active metabolite (II) in man; conditions: human, in vivo

| SMILES | Decrease in mortality versus control groups by renal function ([1]; 180-day, comparison of normal and impaired renal function) | 180-day mortality in levosimendan groups ([1]; mild renal impairment (CLcr 50-80 ml/min)) [%] | 180-day mortality in levosimendan groups ([1]; normal renal function (CLcr > 80 ml/min)) [%] | half-life [2] [h] |
| --- | --- | --- | --- | --- |
| CC1CC(=O)NN=C1c1ccc(NN=C(C#N)C#N)cc1 (single isomer, unassigned; (-)) [Levosimendan, (−)-enantiomer of [[4-(1,4,5,6-tetrahydro-4-methyl-6-oxo-3-pyridazinyl)phenyl]hydrazono]propanedinitrile] | decrease in mortality was highest in patients with impaired renal function | 18 | 15 |  |
| CC(=O)Nc1ccc(C2=NNC(=O)C[C@H]2C)cc1 [active metabolite (II), (R)-N-[4-(1,4,5,6-tetrahydro-4-methyl-6-oxo-3-pyridazinyl)phenyl]acetamide] |  |  |  | ~72 |
